Where two headings read alike, the source gives them in different places.
Molecular target: T1, SIRT1 (Homo sapiens, UniProt Q96EB6)
T1 sequence (Q96EB6 1-747): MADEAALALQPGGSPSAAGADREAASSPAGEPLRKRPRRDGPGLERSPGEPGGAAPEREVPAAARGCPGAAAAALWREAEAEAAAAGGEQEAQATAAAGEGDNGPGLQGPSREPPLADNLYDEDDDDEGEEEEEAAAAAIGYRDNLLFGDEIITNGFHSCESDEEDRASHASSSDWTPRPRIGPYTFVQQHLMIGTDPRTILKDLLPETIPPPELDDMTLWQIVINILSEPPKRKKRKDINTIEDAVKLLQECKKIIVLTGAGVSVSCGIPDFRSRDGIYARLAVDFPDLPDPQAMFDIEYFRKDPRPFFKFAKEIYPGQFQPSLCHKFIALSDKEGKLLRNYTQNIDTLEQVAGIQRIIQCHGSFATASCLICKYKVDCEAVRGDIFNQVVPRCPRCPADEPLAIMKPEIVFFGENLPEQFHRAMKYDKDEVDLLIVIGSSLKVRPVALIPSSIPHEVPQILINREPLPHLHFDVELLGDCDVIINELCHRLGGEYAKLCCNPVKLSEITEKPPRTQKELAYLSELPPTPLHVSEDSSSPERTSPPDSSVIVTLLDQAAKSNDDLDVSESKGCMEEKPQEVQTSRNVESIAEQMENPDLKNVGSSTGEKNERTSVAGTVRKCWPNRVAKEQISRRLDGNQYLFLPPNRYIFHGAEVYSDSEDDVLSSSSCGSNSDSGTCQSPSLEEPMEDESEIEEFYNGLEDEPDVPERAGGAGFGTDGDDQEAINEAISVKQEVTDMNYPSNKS
Experiment: Mass spectrometry based SIRT1 deacetylase activation assay (acetylated p53-derived peptide substrate)
Assay type: biochemical
Details: 0.5 μM peptide substrate, 120 μM βNAD+

[1] = 10 nM SIRT1, 25 min at 25° C., read-out: EC1.5
[2] = 10 nM SIRT1, 25 minutes at 25° C.

| Compound | Fold Act. (percent maximum fold activation) (10 nM SIRT1, 25 min at 25° C.) | EC1.5 [1] | EC1.5 [2] | Fold Act. (percent maximum fold activation) [2] |
| --- | --- | --- | --- | --- |
| O=C1COc2ccc(-c3nc4c(C(=O)Nc5ccccn5)cccc4[nH]3)cc2N1 [Compound 565] | B (Fold Activation <200%) | 1000 to 25000 nM |  |  |
| O=C(Nc1cccnc1)c1cccc2[nH]c(-c3cccc(OC4CCNCC4)c3)nc12 [Compound 567] | A (Fold activation >200%) | < 1000 nM |  |  |
| O=C(Nc1cccnc1)c1cccc2[nH]c(-c3ccnc(N4CCCC4)c3)nc12 [Compound 568] | B (Fold Activation <200%) | > 25000 nM |  |  |
| CCCN1CCc2cc(-c3nc4c(C(=O)Nc5cccnc5)cccc4[nH]3)ccc21 [Compound 569] | A (Fold activation >200%) | 1000 to 25000 nM |  |  |
| CCCN1CCc2cc(-c3nc4c(C(=O)Nc5ncc(C)s5)cccc4[nH]3)ccc21 [Compound 570] | B (Fold Activation <200%) | 1000 to 25000 nM |  |  |
| C[C@@H]1CN(c2cccc(-c3nc4c(C(=O)Nc5nccs5)cccc4[nH]3)c2)C[C@H](C)O1 [Compound 576, 2-(3-(2,6-dimethylmorpholino)phenyl)-N-(thiazol-2-yl)-1H-benzo[d]imidazole-4-carboxamide] | A (Fold activation >200%) | < 1000 nM |  |  |
| C[C@@H]1CN(c2cccc(-c3nc4c(C(=O)Nc5ccccn5)cccc4[nH]3)c2)C[C@H](C)O1 [Compound 577] | A (Fold activation >200%) | < 1000 nM |  |  |
| C[C@@H]1CN(CCOc2ccccc2-c2nc3c(C(=O)Nc4nccs4)cccc3[nH]2)C[C@H](C)O1 [Compound 578] | B (Fold Activation <200%) | 1000 to 25000 nM |  |  |
| O=C(Nc1nccs1)c1cccc2[nH]c(-c3ccccc3OCCN3CCC(F)(F)CC3)nc12 [Compound 579] | B (Fold Activation <200%) | > 25000 nM |  |  |
| CC(C)(C)NCCOc1ccccc1-c1nc2c(C(=O)Nc3nccs3)cccc2[nH]1 [Compound 580] | A (Fold activation >200%) | 1000 to 25000 nM |  |  |
| FC(F)(F)c1cccc(-c2nc3c(Nc4ccccn4)cccc3[nH]2)c1 [Compound 581, N-(pyridin-2-yl)-2-(3-(trifluoromethyl)phenyl)-1H-benzo[d]imidazol-4-amine] | B (Fold Activation <200%) | > 25000 nM |  |  |
| FC(F)(F)c1ccccc1-c1nc2c(Nc3ccccn3)cccc2[nH]1 [Compound 582] | B (Fold Activation <200%) | > 25000 nM |  |  |
| O=C(Nc1ccccn1)c1cccc2[nH]c(-c3cc(F)ccc3OCCN3CCOCC3)nc12 [Compound 584] | A (Fold activation >200%) | 1000 to 25000 nM |  |  |
| O=C(Nc1nccs1)c1cccc2[nH]c(-c3cc(F)cc(F)c3OCCN3CCOCC3)nc12 [Compound 585] | B (Fold Activation <200%) | 1000 to 25000 nM |  |  |
| O=C(Nc1ccccn1)c1cccc2[nH]c(-c3cc(F)cc(F)c3OCCN3CCOCC3)nc12 [Compound 586] | B (Fold Activation <200%) | 1000 to 25000 nM |  |  |
| CC(C)(C)c1cccc(-c2nc3c(C(=O)Nc4ccccn4)cccc3[nH]2)c1OCCN1CCOCC1 [Compound 588] | B (Fold Activation <200%) | 1000 to 25000 nM |  |  |
| O=C(Nc1nccs1)c1cccc2[nH]c(-c3ccc(OC[C@@H](O)CO)cc3C(F)F)nc12 [Compound 594] | A (Fold activation >200%) | < 1000 nM |  |  |
| Cc1cnc(NC(=O)c2cccc3[nH]c(-c4ccc(OC[C@@H](O)CO)cc4C(F)F)nc23)s1 [Compound 595] | A (Fold activation >200%) | < 1000 nM |  |  |
| O=C(Nc1ccccn1)c1cccc2[nH]c(-c3ccc(OC[C@@H](O)CO)cc3C(F)F)nc12 [Compound 596] | A (Fold activation >200%) | < 1000 nM |  |  |
| O=C(Nc1cccc(OC2CCNCC2)c1)c1cccc2[nH]c(-c3ccccc3C(F)(F)F)nc12 [Compound 597] | A (Fold activation >200%) | < 1000 nM |  |  |
| O=C(Nc1cccc(OC2CCNCC2)c1)c1cccc2[nH]c(-c3ccc(Cl)cc3C(F)(F)F)nc12 [Compound 598] |  |  | A (EC1.5<1.0 uM) | A (Fold activation >200%) |
| O=C(Nc1cccc(OC2CCNC2)c1)c1cccc2[nH]c(-c3ccc(Cl)cc3C(F)(F)F)nc12 (stereo not drawn) [Compound 599] |  |  | A (EC1.5<1.0 uM) | A (Fold activation >200%) |
| CS(=O)(=O)c1ccc(F)cc1-c1nc2c(C(=O)Nc3nccs3)cccc2[nH]1 [Compound 600] |  |  | B (EC1.5 1-25 uM) | A (Fold activation >200%) |
| CCCN1CCCc2ccc(-c3nc4c(C(=O)Nc5ncc(C)s5)cccc4[nH]3)cc21 [Compound 602] |  |  | B (EC1.5 1-25 uM) | A (Fold activation >200%) |

The remaining lines, values ahead:

| Fold Act. (percent maximum fold activation) (10 nM SIRT1, 25 min at 25° C.) | EC1.5 [1] | EC1.5 [2] | Fold Act. (percent maximum fold activation) [2] | Compound |
| --- | --- | --- | --- | --- |
| A (Fold activation >200%) | < 1000 nM |  |  | C[C@@H]1CN(c2ccc(-c3nc4c(C(=O)Nc5ccccn5)cccc4[nH]3)c(C(F)(F)F)c2)C[C@H](C)O1 [Compound 571] |
| A (Fold activation >200%) | 1000 to 25000 nM |  |  | O=C(Nc1nccs1)c1cccc2[nH]c(-c3ccc(N4CCCC4)cc3C(F)(F)F)nc12 [Compound 572] |
| A (Fold activation >200%) | < 1000 nM |  |  | O=C(Nc1cccnc1)c1cccc2[nH]c(-c3ccc(N4CCCC4)cc3C(F)(F)F)nc12 [Compound 573] |
| A (Fold activation >200%) | < 1000 nM |  |  | O=C(Nc1cccnc1)c1cccc2[nH]c(-c3ccc(N4CC[C@H](F)C4)cc3C(F)(F)F)nc12 [Compound 574] |
| A (Fold activation >200%) | < 1000 nM |  |  | O=C(Nc1cccnc1)c1cccc2[nH]c(-c3ccc(N4CC[C@@H](F)C4)cc3C(F)(F)F)nc12 [Compound 575] |
| A (Fold activation >200%) | 1000 to 25000 nM |  |  | O=C(Nc1nccs1)c1cccc2[nH]c(-c3cc(F)ccc3OCCN3CCOCC3)nc12 [Compound 583] |
| B (Fold Activation <200%) | 1000 to 25000 nM |  |  | CC(C)(C)c1cccc(-c2nc3c(C(=O)Nc4nccs4)cccc3[nH]2)c1OCCN1CCOCC1 [Compound 587] |
| A (Fold activation >200%) | < 1000 nM |  |  | Cc1nc(NC(=O)c2cccc3[nH]c(-c4ccc(N5CCOCC5)cc4C(F)(F)F)nc23)sc1C [Compound 589] |
| A (Fold activation >200%) | < 1000 nM |  |  | Cc1cc(C)nc(NC(=O)c2cccc3[nH]c(-c4ccc(N5CCOCC5)cc4C(F)(F)F)nc23)c1 [Compound 590] |
| A (Fold activation >200%) | < 1000 nM |  |  | O=C(Nc1ccncn1)c1cccc2[nH]c(-c3ccc(N4CCOCC4)cc3C(F)(F)F)nc12 [Compound 591] |
| A (Fold activation >200%) | < 1000 nM |  |  | Cc1cc(NC(=O)c2cccc3[nH]c(-c4ccc(N5CCOCC5)cc4C(F)(F)F)nc23)n(C)n1 [Compound 592] |
| A (Fold activation >200%) | < 1000 nM |  |  | O=C(Nc1ccncn1)c1cccc2[nH]c(-c3ccc(N4CCOCC4)cc3C(F)F)nc12 [Compound 593] |
|  |  | A (EC1.5<1.0 uM) | A (Fold activation >200%) | Cc1cnc(NC(=O)c2cccc3[nH]c(-c4sc(N5CCOCC5)nc4C)nc23)s1 [Compound 601] |
|  |  | A (EC1.5<1.0 uM) | A (Fold activation >200%) | C[C@@H]1CN(c2ccc(-c3nc4c(C(=O)Nc5nccs5)cccc4[nH]3)c(C(F)(F)F)c2)C[C@H](C)O1 [Compound 603] |
|  |  | A (EC1.5<1.0 uM) | A (Fold activation >200%) | C[C@@H]1CN(c2ccc(-c3nc4c(C(=O)Nc5cccnc5)cccc4[nH]3)c(C(F)(F)F)c2)C[C@H](C)O1 [Compound 604] |
|  |  | B (EC1.5 1-25 uM) | A (Fold activation >200%) | O=C(Nc1ccccn1)c1cccc2[nH]c(-c3ccc(N4CCCC4)cc3C(F)(F)F)nc12 [Compound 605] |
|  |  | A (EC1.5<1.0 uM) | A (Fold activation >200%) | O=C(Nc1nccs1)c1cccc2[nH]c(-c3ccc(N4CC[C@H](F)C4)cc3C(F)(F)F)nc12 [Compound 606] |
|  |  | A (EC1.5<1.0 uM) | A (Fold activation >200%) | O=C(Nc1ccccn1)c1cccc2[nH]c(-c3ccc(N4CC[C@H](F)C4)cc3C(F)(F)F)nc12 [Compound 607] |
